Measurements published in PubChem BioAssay (NCI).
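GI50: concentration for 50% inhibition of growth. TGI: concentration producing complete growth inhibition.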

Columns and labels:
Experiment in all cases: growth of human tumour cells (NCI), 384-well format
[1] = system: IGROV1 ovarian
[2] = system: M14 melanoma
[3] = system: SF-268 CNS
[4] = system: SK-MEL-2 melanoma
[5] = system: OVCAR-5 ovarian
[6] = system: HS 578T breast
[7] = system: NCI/ADR-RES ovarian
[8] = system: HOP-62 NSCLC
[9] = system: NCI-H522 lung
[10] = system: NCI-H23 lung
[11] = system: SK-OV-3 ovarian
[12] = system: LOX IMVI melanoma
[13] = system: KM12 colon
[14] = system: COLO 205 colon
[15] = system: SW-620 colon
[16] = system: SNB-75 CNS
[17] = system: MDA-MB-435 melanoma
[18] = system: SN12C renal
[19] = system: A498 renal
[20] = system: MOLT-4 leukemia
[21] = system: A549 NSCLC
[22] = system: CCRF-CEM leukemia
[23] = system: T-47D breast
[24] = system: MDA-MB-231 breast
[25] = system: RPMI-8226 leukemia
[26] = system: NCI-H322M lung
[27] = system: HCT-15 colon
[28] = system: CAKI-1 renal
[29] = system: RXF 393 renal
[30] = system: TK-10 renal
[31] = system: BT-549 breast
[32] = system: U251 glioblastoma
[33] = system: MCF7 breast
[34] = system: SK-MEL-5 melanoma
[35] = system: OVCAR-3 ovarian
[36] = system: UACC-62 melanoma
[37] = system: HT29 colon
[38] = system: SR leukemia
[39] = system: MDA-MB-468 breast
[40] = system: HL-60(TB) leukemia
[41] = system: SNB-19 CNS
[42] = system: UACC-257 melanoma
[43] = system: HCC-2998 colon
[44] = system: SF-539 CNS
[45] = system: EKVX NSCLC
[46] = system: DU-145 prostate
[47] = system: SK-MEL-28 melanoma
[48] = system: SF-295 CNS
[49] = system: PC-3 prostate
[50] = system: NCI-H226 lung
[51] = system: NCI-H460 NSCLC
[52] = system: ACHN renal
[53] = system: OVCAR-4 ovarian
[54] = system: OVCAR-8 ovarian
[55] = system: 786-0 renal
[56] = system: K-562 leukemia
[57] = system: HOP-92 NSCLC
[58] = system: MALME-3M melanoma
[59] = system: HCT-116 colon

C[C@@H]1CCN(C(=O)CC#N)C[C@@H]1N(C)c1ncnc2[nH]ccc12
GI50 [1]: > 79.9 µM
TGI [1]: > 100 µM
GI50 [2]: > 100 µM
TGI [2]: > 100 µM
GI50 [3]: 99.8 µM
TGI [3]: > 100 µM
GI50 [4]: > 100 µM
TGI [4]: > 100 µM
GI50 [5]: 62 µM
TGI [5]: > 100 µM
GI50 [6]: > 100 µM
TGI [6]: > 100 µM
GI50 [7]: > 100 µM
TGI [7]: > 100 µM
GI50 [8]: > 100 µM
TGI [8]: > 100 µM
GI50 [9]: > 83.7 µM
TGI [9]: > 100 µM
GI50 [10]: > 100 µM
TGI [10]: > 100 µM
GI50 [11]: > 58 µM
TGI [11]: > 100 µM
GI50 [12]: > 100 µM
TGI [12]: > 100 µM
GI50 [13]: > 100 µM
TGI [13]: > 100 µM
GI50 [14]: > 100 µM
TGI [14]: > 100 µM
GI50 [15]: > 100 µM
TGI [15]: > 100 µM
GI50 [16]: 61.5 µM
TGI [16]: > 100 µM
GI50 [17]: > 100 µM
TGI [17]: > 100 µM
GI50 [18]: > 94 µM
TGI [18]: > 100 µM
GI50 [19]: > 100 µM
TGI [19]: > 100 µM
GI50 [20]: > 100 µM
TGI [20]: > 100 µM
GI50 [21]: > 100 µM
TGI [21]: > 100 µM
GI50 [22]: > 100 µM
TGI [22]: > 100 µM
GI50 [23]: > 100 µM
TGI [23]: > 100 µM
GI50 [24]: 62.5 µM
TGI [24]: > 100 µM
GI50 [25]: > 100 µM
TGI [25]: > 100 µM
GI50 [26]: > 100 µM
TGI [26]: > 100 µM
GI50 [27]: > 100 µM
TGI [27]: > 100 µM
GI50 [28]: > 100 µM
TGI [28]: > 100 µM
GI50 [29]: > 80.4 µM
TGI [29]: > 100 µM
GI50 [30]: > 71.4 µM
TGI [30]: > 100 µM
GI50 [31]: > 100 µM
TGI [31]: > 100 µM
GI50 [32]: > 100 µM
TGI [32]: > 100 µM
GI50 [33]: > 100 µM
TGI [33]: > 100 µM
GI50 [34]: > 100 µM
TGI [34]: > 100 µM
GI50 [35]: > 100 µM
TGI [35]: > 100 µM
GI50 [36]: > 100 µM
TGI [36]: > 100 µM
GI50 [37]: > 100 µM
TGI [37]: > 100 µM
GI50 [38]: > 100 µM
TGI [38]: > 100 µM
GI50 [39]: > 100 µM
TGI [39]: > 100 µM
GI50 [40]: > 100 µM
TGI [40]: > 100 µM
GI50 [41]: > 100 µM
TGI [41]: > 100 µM
GI50 [42]: > 100 µM
TGI [42]: > 100 µM
GI50 [43]: > 100 µM
TGI [43]: > 100 µM
GI50 [44]: > 100 µM
TGI [44]: > 100 µM
GI50 [45]: > 100 µM
TGI [45]: > 100 µM
GI50 [46]: > 100 µM
TGI [46]: > 100 µM
GI50 [47]: > 100 µM
TGI [47]: > 100 µM
GI50 [48]: > 100 µM
TGI [48]: > 100 µM
GI50 [49]: > 100 µM
TGI [49]: > 100 µM
GI50 [50]: > 42.6 µM
TGI [50]: > 85.5 µM
GI50 [51]: > 100 µM
TGI [51]: > 100 µM
GI50 [52]: > 100 µM
TGI [52]: > 100 µM
GI50 [53]: > 100 µM
TGI [53]: > 100 µM
GI50 [54]: > 100 µM
TGI [54]: > 100 µM
GI50 [55]: > 100 µM
TGI [55]: > 100 µM
GI50 [56]: > 100 µM
TGI [56]: > 100 µM
GI50 [57]: > 100 µM
TGI [57]: > 100 µM
GI50 [58]: > 100 µM
TGI [58]: > 100 µM
GI50 [59]: > 100 µM
TGI [59]: > 100 µM
